Measurements: patent US12241021B2, “Method for fracking of simulation of hydrocarbon bearing formation” (Fluid Energy Group Ltd., priority 2018, dated 2025)

Assay: Corrosion testing of 316 steel coupons with acidic fluids
Conditions: for corrosion protection when used separately: alkyne alcohol or cinnamaldehyde alone in the inhibitor
From the text: Corrosion inhibitor compositions according to preferred embodiments of the present invention were exposed to corrosion testing. Various steel grades (stainless steel and carbon steel) were subjected to acid compositions comprising corrosion inhibitors according to the present invention against known corrosion inhibitors to the listed compositions for various periods of time at varying temperatures. A desirable corrosion inhibition result was one where the lb/ft2 corrosion number is at or below 0.05. More preferably, that number is at or below 0.02.
33% HCl; MEA in a 5.5:1 ratio and 50% HCl; MEA in a 5.5:1 ratio indicate the volume amount of the original concentration of a stock solution containing HCl and Monoethanolamine in a ratio of 5.5:1. The HCl loading of a 33% HCl; MEA in a 5.5:1 ratio is approximately 6.5% HCl. The HCl loading of 50% HCl; MEA in a 5.5:1 ratio is approximately 10% HCl.

SMILES	corrosion protection when used separately	film forming, protection of stainless steel (at these temperatures (90° C. to 120° C.))	prevention of pitting (higher temperatures (even 110° C. to 120° C.))
C#CCO [propargyl alcohol]	did not provide corrosion protection sufficient		
O=CC=Cc1ccccc1 [cinnamaldehyde]	did not provide corrosion protection sufficient	effective film former	
CC(C)=CCCC(C)=CC=O (racemic) [Citral, (±)-3,7-Dimethyl-2,6-octadienal]			some effectiveness for the prevention of pitting
